Positions of bridges follow the written chain, without caps; N, C: chain ends. Non-standard residues stand in square brackets, D forms with d. Residues, ends and D or L forms follow the SMILES beside them. *: point of attachment. hPhe(3-Cl-4-CF3) = N[C@@H](CCc1ccc(C(F)(F)F)c(Cl)c1)C(=O)O; NMeGly(cPent) = CN[C@H](C(=O)O)C1CCCC1; NMeCha = CN[C@@H](CC1CCCCC1)C(=O)O; NMeChg = CN[C@H](C(=O)O)C1CCCCC1; NMeT = CN[C@H](C(=O)O)[C@@H](C)O; NMeD = CN[C@@H](CC(=O)O)C(=O)O; NMeL = CN[C@@H](CC(C)C)C(=O)O; NMehSer = CN[C@@H](CCO)C(=O)O; NMeNva = CCC[C@H](NC)C(=O)O; Morpholide = C1CN(*)CCO1; NMeA = CN[C@@H](C)C(=O)O; Piperidide = C1CCN(*)CC1; Ac5c = NC1(C(=O)O)CCCC1; Aze = O=C(O)[C@@H]1CCN1; Sar = CNCC(=O)O
Columns and labels:
[1] = Half-life in Cynomolgus monkey at 0.167 mg/kg, iv measured upto 24 hrs by LC-MS/MS analysis; type: ADME, organism-based, Macaca fascicularis; settings: in vivo
[2] = Oral bioavailability in Wistar Hannover rat at 10 mg/kg measured upto 48 hrs by LC-MS/MS analysis; type: ADME, organism-based; settings: in vivo
[3] = Oral bioavailability in Cynomolgus monkey at 15 mg/kg measured upto 48 hrs by LC-MS/MS analysis; type: ADME, organism-based, Macaca fascicularis; settings: in vivo
[4] = Metabolic stability in mouse liver microsomes assessed as intrinsic clearance per mg protein at 0.2 uM measured upto 30 mins by LC-MS/MS analysis; type: ADME, Microsome; settings: read-out: CLH
[5] = Apparent permeability in human Caco-2 cells incubated for 180 mins by LC-MS/MS method; type: ADME, cell-based
[6] = Metabolic stability in human liver microsomes assessed as intrinsic clearance per mg protein at 0.2 uM measured upto 30 mins by LC-MS/MS analysis; type: ADME, Microsome; settings: read-out: CLH
[7] = Half-life in BALB/c nude mouse at 1 mg/kg, iv measured upto 24 hrs by LC-MS/MS analysis; type: ADME, organism-based; settings: in vivo
ASPC1 = assay: Cytotoxicity against human AsPC1 cells assessed as reduction in cell viability incubated for 7 days by CellTiterGlo Luminescent Cell Viability Assay; type: functional, cell-based; settings: ASPC1, 168 h
[8] = Volume of distribution at steady state in Cynomolgus monkey at 0.167 mg/kg, iv measured upto 24 hrs by LC-MS/MS analysis; type: ADME, organism-based, Macaca fascicularis; settings: in vivo, read-out: Vdss
[9] = AUCinfinity in Wistar Hannover rat at 10 mg/kg, po measured upto 48 hrs by LC-MS/MS analysis; type: ADME, organism-based; settings: in vivo
[10] = AUCinfinity in BALB/c nude mouse at 1 mg/kg, iv measured upto 24 hrs by LC-MS/MS analysis; type: ADME, organism-based; settings: BALB/c nude, in vivo
[11] = Volume of distribution at steady state in Wistar Hannover rat at 1 mg/kg, iv measured upto 24 hrs by LC-MS/MS analysis; type: ADME, organism-based; settings: Wistar Hannover, in vivo, read-out: Vdss
[12] = Metabolic stability in rat liver microsomes assessed as intrinsic clearance per mg protein at 0.2 uM measured upto 30 mins by LC-MS/MS analysis; type: ADME, Microsome; settings: read-out: CLH
[13] = Inhibition of biotin-tagged KRAS G12D mutant (unknown origin) to recombinant His-tagged SOS1 (unknown origin) protein-protein interaction incubated for 120 mins by AlphaLISA method; design: species or system Homo sapiens
[14] = AUCinfinity in Wistar Hannover rat at 1 mg/kg, iv measured upto 24 hrs by LC-MS/MS analysis; type: ADME, organism-based; settings: in vivo
[15] = Clearance in Cynomolgus monkey at 0.167 mg/kg, iv measured upto 24 hrs by LC-MS/MS analysis; type: ADME, organism-based, Macaca fascicularis; settings: in vivo
[16] = AUCinfinity in Cynomolgus monkey at 15 mg/kg, po measured upto 48 hrs by LC-MS/MS analysis; type: ADME, organism-based, Macaca fascicularis; settings: in vivo
[17] = Metabolic stability in monkey liver microsomes assessed as intrinsic clearance per mg protein at 0.2 uM measured upto 30 mins by LC-MS/MS analysis; type: ADME, Macaca mulatta, Microsome; settings: rhesus monkey, read-out: CLH
[18] = Oral bioavailability in BALB/c nude mouse at 20 mg/kg measured upto 24 hrs by LC-MS/MS analysis; type: ADME, organism-based; settings: BALB/c nude, in vivo
GTPase KRas = GTPase KRas (Homo sapiens, UniProt P01116, G12D); assay: Binding affinity to biotinylated KRAS G12D mutant (unknown origin) incubated for 120 mins by SPR analysis
Sequence of GTPase KRas (P01116 whole entry G12D): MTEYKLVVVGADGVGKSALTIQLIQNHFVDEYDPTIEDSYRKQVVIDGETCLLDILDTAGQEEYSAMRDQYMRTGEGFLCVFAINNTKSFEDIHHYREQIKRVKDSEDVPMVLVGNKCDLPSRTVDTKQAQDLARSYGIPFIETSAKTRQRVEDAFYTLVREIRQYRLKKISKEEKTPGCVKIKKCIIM

[19] = Half-life in Cynomolgus monkey at 15 mg/kg, po measured upto 48 hrs by LC-MS/MS analysis; type: ADME, organism-based, Macaca fascicularis; settings: in vivo
[20] = Clearance in BALB/c nude mouse at 1 mg/kg, iv measured upto 24 hrs by LC-MS/MS analysis; type: ADME, organism-based; settings: in vivo
[21] = Clearance in Wistar Hannover rat at 1 mg/kg, iv measured upto 24 hrs by LC-MS/MS analysis; type: ADME, organism-based; settings: in vivo
[22] = Half-life in BALB/c nude mouse at 20 mg/kg, po measured upto 24 hrs by LC-MS/MS analysis; type: ADME, organism-based; settings: in vivo
[23] = Volume of distribution at steady state in BALB/c nude mouse at 1 mg/kg, iv measured upto 24 hrs by LC-MS/MS analysis; type: ADME, organism-based; settings: in vivo, read-out: Vdss
[24] = Half-life in Wistar Hannover rat at 1 mg/kg, iv measured upto 24 hrs by LC-MS/MS analysis; type: ADME, organism-based; settings: Wistar Hannover, in vivo
[25] = AUCinfinity in Cynomolgus monkey at 0.167 mg/kg, iv measured upto 24 hrs by LC-MS/MS analysis; type: ADME, organism-based, Macaca fascicularis; settings: in vivo
[26] = Half-life in Wistar Hannover rat at 10 mg/kg, po measured upto 48 hrs by LC-MS/MS analysis; type: ADME, organism-based; settings: in vivo
[27] = AUCinfinity in BALB/c nude mouse at 20 mg/kg, po measured upto 24 hrs by LC-MS/MS analysis; type: ADME, organism-based; settings: BALB/c nude, in vivo
[28] = tested on: GTPase KRas (Homo sapiens), P01116 [G12D]; assay: Binding affinity to biotinylated KRAS G12D mutant (unknown origin) assessed as Kon incubated for 120 mins by SPR analysis
Sequence of GTPase KRas (Homo sapiens), P01116 [G12D] (P01116 whole entry G12D, looked up): as the sequence (P01116 whole entry G12D) above

[29] = tested on: GTPase KRas (Homo sapiens), P01116 [G12D]; assay: Binding affinity to biotinylated KRAS G12D mutant (unknown origin) assessed as Koff incubated for 120 mins by SPR analysis

SMILES: CC[C@H](C)[C@@H]1NC(=O)[C@H](CC(C)C)N(C)C(=O)C[C@@H](C(=O)N2CCOCC2)N(C)C(=O)[C@H](C2CCCC2)N(C)C(=O)C2(CCCC2)NC(=O)[C@@H]2CCCN2C(=O)[C@H](CCc2ccc(C(F)(F)F)c(Cl)c2)NC(=O)CN(C)C(=O)[C@H](CC2CCCCC2)N(C)C(=O)[C@@H]2CCN2C(=O)[C@H](C)N(C)C1=O ([NMeL]I[NMeA][Aze][NMeCha][Sar][hPhe(3-Cl-4-CF3)]P[Ac5c][NMeGly(cPent)][NMeD]-Morpholide; lactam N-11)
- half-life [1]: 8.14 h
- bioavailability [2]: 21%
- F [3]: 7.2%
- microsomal CLint at 0.2 µM [4]: 27 µL/min/mg
- Papp at 3 h [5]: 17.4 nm/s
- microsomal CLint at 0.2 µM [6]: 26 µL/min/mg
- half-life [7]: 5.98 h
- IC50 (ASPC1): 4.8 nM
- Vd [8]: 0.37 L/kg
- AUC(0-inf) [9]: 3.52 µg·h/mL
- AUC(0-inf) [10]: 1.35 µg·h/mL
- Vd [11]: 0.82 L/kg
- microsomal CLint at 0.2 µM [12]: 28 µL/min/mg
- IC50 [13]: < 2 nM
- AUC(0-inf) [14]: 2.14 µg·h/mL
- clearance [15]: 0.258 L/h/kg
- AUC [16]: 12.5 µg·h/mL
- microsomal CLint at 0.2 µM [17]: 43 µL/min/mg
- bioavailability [18]: 14%
- Kd (GTPase KRas): 0.18 nM
- half-life [19]: 7.71 h
- clearance [20]: 0.744 L/h/kg
- clearance [21]: 0.469 L/h/kg
- half-life [22]: 4.16 h
- Vd [23]: 3 L/kg
- half-life [24]: 5.57 h
- AUC [25]: 0.673 µg·h/mL
- half-life [26]: 3.96 h
- AUC(0-inf) [27]: 3.88 µg·h/mL

SMILES: CC[C@H](C)[C@@H]1NC(=O)[C@H](CC(C)C)N(C)C(=O)C[C@@H](C(=O)N2CCCCC2)N(C)C(=O)[C@H](C2CCCCC2)N(C)C(=O)C2(CCCC2)NC(=O)[C@@H]2CCCN2C(=O)[C@H](CCc2ccc(C(F)(F)F)c(Cl)c2)NC(=O)CN(C)C(=O)[C@H](CC2CCCCC2)N(C)C(=O)CN(C)C(=O)CN(C)C1=O ([NMeL]I[Sar][Sar][NMeCha][Sar][hPhe(3-Cl-4-CF3)]P[Ac5c][NMeChg][NMeD]-Piperidide; lactam N-11)
- Papp at 3 h [5]: 7.1 nm/s
- IC50 (ASPC1): 40 nM
- IC50 [13]: < 2 nM
- K [28]: 7.8 10^5/Ms
- K [29]: 2.5 10^-4/s
- Kd (GTPase KRas): 0.32 nM

SMILES: CCC[C@H]1C(=O)N[C@@H]([C@@H](C)CC)C(=O)N(C)CC(=O)N(C)CC(=O)N(C)[C@@H](CC2CCCCC2)C(=O)N(C)CC(=O)N[C@@H](CCc2ccc(C(F)(F)F)c(Cl)c2)C(=O)N2CCC[C@H]2C(=O)NC2(CCCC2)C(=O)N(C)[C@@H](C2CCCCC2)C(=O)N(C)[C@H](C(=O)N2CCCCC2)CC(=O)N1C ([NMeNva]I[Sar][Sar][NMeCha][Sar][hPhe(3-Cl-4-CF3)]P[Ac5c][NMeChg][NMeD]-Piperidide; lactam N-11)
- Papp at 3 h [5]: 8.5 nm/s
- IC50 (ASPC1): 49 nM
- IC50 [13]: < 2 nM
- K [28]: 3.1 10^5/Ms
- K [29]: 2.3 10^-4/s
- Kd (GTPase KRas): 0.75 nM

SMILES: CC[C@H](C)[C@@H]1NC(=O)[C@H]([C@@H](C)O)N(C)C(=O)C[C@@H](C(=O)N2CCCCC2)N(C)C(=O)[C@H](C2CCCCC2)N(C)C(=O)C2(CCCC2)NC(=O)[C@@H]2CCCN2C(=O)[C@H](CCc2ccc(C(F)(F)F)c(Cl)c2)NC(=O)CN(C)C(=O)[C@H](CC2CCCCC2)N(C)C(=O)CN(C)C(=O)CN(C)C1=O ([NMeT]I[Sar][Sar][NMeCha][Sar][hPhe(3-Cl-4-CF3)]P[Ac5c][NMeChg][NMeD]-Piperidide; lactam N-11)
- Papp at 3 h [5]: 1.5 nm/s
- IC50 (ASPC1): 220 nM
- IC50 [13]: < 2 nM
- K [28]: 1.2 10^6/Ms
- K [29]: 2.7 10^-4/s
- Kd (GTPase KRas): 0.23 nM

SMILES: CC[C@H](C)[C@@H]1NC(=O)[C@H](CCOC)N(C)C(=O)C[C@@H](C(=O)N2CCCCC2)N(C)C(=O)[C@H](C2CCCCC2)N(C)C(=O)C2(CCCC2)NC(=O)[C@@H]2CCCN2C(=O)[C@H](CCc2ccc(C(F)(F)F)c(Cl)c2)NC(=O)CN(C)C(=O)[C@H](CC2CCCCC2)N(C)C(=O)CN(C)C(=O)CN(C)C1=O ([NMehSer](Me)I[Sar][Sar][NMeCha][Sar][hPhe(3-Cl-4-CF3)]P[Ac5c][NMeChg][NMeD]-Piperidide; lactam N-11)
- Papp at 3 h [5]: 3.7 nm/s
- IC50 (ASPC1): 74 nM
- IC50 [13]: < 2 nM
- K [28]: 1.1 10^6/Ms
- K [29]: 2.8 10^-4/s
- Kd (GTPase KRas): 0.26 nM

SMILES: CC[C@H](C)[C@@H]1NC(=O)[C@H](CCO)N(C)C(=O)C[C@@H](C(=O)N2CCCCC2)N(C)C(=O)[C@H](C2CCCCC2)N(C)C(=O)C2(CCCC2)NC(=O)[C@@H]2CCCN2C(=O)[C@H](CCc2ccc(C(F)(F)F)c(Cl)c2)NC(=O)CN(C)C(=O)[C@H](CC2CCCCC2)N(C)C(=O)CN(C)C(=O)CN(C)C1=O ([NMehSer]I[Sar][Sar][NMeCha][Sar][hPhe(3-Cl-4-CF3)]P[Ac5c][NMeChg][NMeD]-Piperidide; lactam N-11)
- Papp at 3 h [5]: 3.9 nm/s
- IC50 (ASPC1): 63 nM
- IC50 [13]: < 2 nM
- K [28]: 1.2 10^6/Ms
- K [29]: 2.2 10^-4/s
- Kd (GTPase KRas): 0.17 nM
